# Where two headings read alike, the source gives them in different places.
# Key:
# cancer = system: cancer; design: key: cytotoxic: CYTOTOXICITY is toxicity to tumor cells in culture; anticancer: ANTINEOPLASTIC or ANTICANCER iare the reserved terms for reportied clinical trials data; conditions: in cancer area; terms defined in table footnote; cited from earlier work
# [1] = Solubility determination in water, semi-quantitative; assay type: physicochemical
# Procedure: Solubility in water at 25° C. was measured semi-quantitatively at a threshold of 5 g per 100 mL. All the homoharringtonine salts described in the below examples, unless otherwise stated, are soluble at this threshold. Homoharringtonine base itself is soluble at a threshold lower than 0.1 g per mL
Compound,Activity (cancer),"solubility ([1]; 25° C., semi-quantitative, read-out: Solubility in water (threshold)) [mg/mL]",solubility ([1]; 25 °C) [mg/mL]
"COC(=O)CC(O)(CCCCC(C)(C)O)C(=O)OC1C(OC)=CC23CCCN2CCc2cc4c(cc2C13)OCO4 (stereo not drawn) [Example 5e, bishomoharringtonine]",none,–,–
"COC(=O)CC(O)(CC(C)(C)O)C(=O)OC1C(OC)=CC23CCCN2CCc2cc4c(cc2C13)OCO4 (stereo not drawn) [Example 5c, norharringtonine]",none,–,–
"COC(=O)C[C@](O)(CCC(C)(C)O)C(=O)O[C@@H]1C(OC)=C[C@]23CCCN2CCc2cc4c(cc2[C@H]13)OCO4 [Example 5a, harringtonine]",anticancer,–,–
"COC(=O)C[C@](O)(CCCC(C)(C)O)C(=O)O[C@@H]1C(OC)=C[C@]23CCCN2CCc2cc4c(cc2[C@H]13)OCO4 [Homoharringtonine base, homoharringtonine]",anticancer,< 100,–
"COC(=O)[C@@H](O)[C@](O)(CCC(C)C)C(=O)O[C@@H]1C(OC)=C[C@]23CCCN2CCc2cc4c(cc2[C@H]13)OCO4 [Example 5f, isoharringtonine]",none,–,–
neoharringtonine [Example 5g],cytotoxic,–,–
"COC(=O)C[C@@](O)(CCCC(C)(C)O)C(=O)O[C@@H]1C(OC)=C[C@]23CCCN2CCc2cc4c(cc2[C@H]13)OCO4.O=C(O)C[C@H](O)C(=O)O [Example 3, HOMOHARRINGTONINE HYDROGEN (2S)-MALATE]",–,–,> 60
"COC(=O)C[C@](O)(CCC(C)C)C(=O)O[C@@H]1C(OC)=C[C@]23CCCN2CCc2cc4c(cc2[C@H]13)OCO4 [Example 5d, deoxyharringtonine]",anticancer,–,–

# Source: patent US10150776B2, “Harringtonines salts in the crystalline state and their use for the purification of the corresponding drug substance” (priority 2013, dated 2018)
